The values that follow are results of earlier work, collected in patent US7079956B2, “Crystal structure of antibiotics bound to the 30S ribosome and its use” (Medical Research Council, priority 2000, dated 2006).

For the data set the following is noted: literature values: Ross et al. 1998 (tetracycline), Cohen et al. 1969 (pactamycin), Cabanas et al. 1978 (hygromycin B).

With `CC(=O)c1cccc(NC2C(N)C(NC(=O)N(C)C)(C(C)O)C(C)(O)C2(O)COC(=O)c2c(C)cccc2O)c1` (centres unmarked) [pactamycin, 2-hydroxy-6-methylbenzoic acid [5-[(3-acetylphenyl)amino]-4-amino-3-[[(dimethylamino)-carbonyl]amino]-1,2-dihydroxy-3-(1-hydroxy-ethyl)-2-methylcyclopentyl]methyl ester], the minimum inhibitory concentration was 8 to 80 µM.

On to `CN[C@H]1C[C@@H](N)[C@H](O)[C@@H](O[C@@H]2O[C@H](CO)[C@H](O)[C@@H]3OC4(O[C@H]23)O[C@H]([C@@H](N)CO)[C@H](O)[C@H](O)[C@H]4O)[C@@H]1O` (stereo partly drawn) [hygromycin B, O-6-amino-6-deoxy-L-glycero-D-galacto-heptopyranosylidene-(12-3)-O-D-talopyranosyl-(15)-2-deoxy-N3-methyl-D-streptamine], for which the minimum inhibitory concentration entry was “around 6 μM”.
